Experimental data as given in publication PMC10464304, “Refined read‐out: The hUHRF1 Tandem‐Tudor domain prefers binding to histone H3 tails containing K4me1 in the context of H3K9me2/3” (Protein Science : A Publication of the Protein Society, 2023).

Target: T1, hUHRF1‐TTD WT (GST‐fused, residues 126–280) (Homo sapiens, UniProt Q96T88)
T1 construct: on previously defined borders (residues 126–280; Rothbart et al., [2012]) was N‐terminally fused to GST; made in house; host or cells: Escherichia coli
T1 sequence (Q96T88 126-280): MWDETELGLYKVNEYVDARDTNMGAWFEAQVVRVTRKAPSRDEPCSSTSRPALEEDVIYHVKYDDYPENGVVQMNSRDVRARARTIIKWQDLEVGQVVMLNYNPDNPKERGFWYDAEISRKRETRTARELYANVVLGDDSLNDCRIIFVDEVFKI
Test: Equilibrium peptide binding titration by fluorescence anisotropy (FA), TTD WT
Method: The Tandem Tudor domain of hUHRF1 (UNIPROT Q96T88) on previously defined borders (residues 126–280; Rothbart et al., [2012]) was N‐terminally fused to GST. Mutations were introduced using an updated rolling circle protocol and validated by Sanger sequencing. Proteins were overexpressed in Escherichia coli by induction with 1 mM isopropyl‐β‐D‐thiogalactopyronoside (IPTG) when OD600 reached 0.6–0.8, and the culture was continued overnight at 20°C. The cells were harvested by centrifugation for 30 min, at 4°C and 3781 g. For purification, each pellet was resuspended in 30 mL sonication buffer (500 mM KCl, 20 mM HEPES pH 7.5, 10% v/v glycerol, and 0.2 mM dithiothreitol [DTT]) and sonicated for cell lysis (Q120 Sonicator, Active Motif). After centrifugation for 1 h at 4°C and 45,850 g, the soluble protein was purified using Glutathione Agarose 4B gravitational columns and dialyzed against dialysis buffer (200 mM KCl, 20 mM HEPES, 10% v/v glycerol, pH 7.5, and 0.2 mM DTT). […] Protein concentration was determined spectroscopically by A 280 and purity was verified on SDS‐PAGE.
Equilibrium peptide binding experiments were performed on a Jasco FP‐8300 spectrofluorometer with an automatic polarizer FDP‐837. […] Acquisitions were performed at 23°C with excitation at 493 nm and emission measured at 520 nm, slit width set to 5 nm for both, and multiple accumulations. […]

| binding of TTD WT to the peptide (in words) (Supplemental Figure 3B, control data, FA titration) | preference for the double‐modified peptide (H3K4me1‐K9me2 versus H3K9me2 peptide, FA titrations with GST‐TTD WT (Figure S3a)) | Substance |
| --- | --- | --- |
| weakly | – | ARTK(me1)QTARKSTGGKAPR-K(FITC) [H3K4me1, FITC‐labeled histone H3 (1-17) peptide with K4me1] |
| – | > 2 fold | ARTK(me1)QTARK(me2)STGGKAPRKQ-K(FITC) [H3K4me1‐K9me2, FITC‐labeled histone H3 (1-19) peptide with K4me1 and K9me2] |
